{
  "source": "BigSolDB 2.1",
  "data": [
    {"smiles": "COc1ccc2c(c1)c(CC(=O)O)c(C)n2C(=O)c1ccc(Cl)cc1", "values": [
      {"measurement": "solubility (mole fraction)", "setting": "in PEG-400, 293.15 K", "value": 0.0751},
      {"measurement": "solubility (mole fraction)", "setting": "in PEG-400, 298.15 K", "value": 0.0831},
      {"measurement": "solubility (mole fraction)", "setting": "in PEG-400, 303.15 K", "value": 0.0923},
      {"measurement": "solubility (mole fraction)", "setting": "in PEG-400, 308.15 K", "value": 0.102},
      {"measurement": "solubility (mole fraction)", "setting": "in PEG-400, 313.15 K", "value": 0.114},
      {"measurement": "solubility (mole fraction)", "setting": "in PEG-400, 318.15 K", "value": 0.127},
      {"measurement": "solubility (mole fraction)", "setting": "in water, 293.15 K", "value": "4.73e-08"},
      {"measurement": "solubility (mole fraction)", "setting": "in water, 298.15 K", "value": "5e-08"},
      {"measurement": "solubility (mole fraction)", "setting": "in water, 303.15 K", "value": "5.31e-08"},
      {"measurement": "solubility (mole fraction)", "setting": "in water, 308.15 K", "value": "5.58e-08"},
      {"measurement": "solubility (mole fraction)", "setting": "in water, 313.15 K", "value": "5.85e-08"},
      {"measurement": "solubility (mole fraction)", "setting": "in water, 318.15 K", "value": "6.16e-08"}
    ]}
  ]
}
